Key:
[1] = molecular target: T1, Thiamine transporter ThiT (Lactococcus lactis subsp. cremoris (strain MG1363), UniProt A2RI47); experiment: Binding affinity to wild-type Lactococcus lactis MG1363 N-terminal His8-tagged ThiT expressed in Lactococcus lactis NZ9000 incubated for 10 secs measured over 15 secs by fluorescence spectrophotometric method
T1 sequence (A2RI47 whole entry): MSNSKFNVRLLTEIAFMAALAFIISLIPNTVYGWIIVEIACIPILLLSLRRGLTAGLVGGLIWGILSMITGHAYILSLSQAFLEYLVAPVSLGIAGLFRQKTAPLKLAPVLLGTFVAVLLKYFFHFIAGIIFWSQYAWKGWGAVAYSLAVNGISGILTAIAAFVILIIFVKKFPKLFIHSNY

[2] = molecular target: T1, Thiamine transporter ThiT; experiment: Binding affinity to wild-type Lactococcus lactis MG1363 N-terminal His8-tagged ThiT expressed in Lactococcus lactis NZ9000 by isothermal calorimetric titration method
[3] = molecular target: Thiamine transporter ThiT (Lactococcus lactis subsp. cremoris (strain MG1363), UniProt A2RI47, W34A); experiment: Binding affinity to Lactococcus lactis MG1363 N-terminal His8-tagged ThiT Trp34Ala mutant expressed in Lactococcus lactis NZ9000 incubated for 5 secs measured over 20 secs by fluorescence spectrophotometric method
[4] = molecular target: Thiamine transporter ThiT (Lactococcus lactis subsp. cremoris (strain MG1363), UniProt A2RI47, E84Q); experiment: Binding affinity to Lactococcus lactis MG1363 N-terminal His8-tagged ThiT Glu84Gln mutant expressed in Lactococcus lactis NZ9000 by isothermal calorimetric titration method
[5] = molecular target: Thiamine transporter ThiT (Lactococcus lactis subsp. cremoris (strain MG1363), UniProt A2RI47, H125A); experiment: Binding affinity to Lactococcus lactis MG1363 N-terminal His8-tagged ThiT His125Ala mutant expressed in Lactococcus lactis NZ9000 by isothermal calorimetric titration method
[6] = molecular target: Thiamine transporter ThiT (Lactococcus lactis subsp. cremoris (strain MG1363), UniProt A2RI47, H125N); experiment: Binding affinity to Lactococcus lactis MG1363 N-terminal His8-tagged ThiT His125Asn mutant expressed in Lactococcus lactis NZ9000 by isothermal calorimetric titration method
[7] = molecular target: Thiamine transporter ThiT (Lactococcus lactis subsp. cremoris (strain MG1363), UniProt A2RI47, E84D); experiment: Binding affinity to Lactococcus lactis MG1363 N-terminal His8-tagged ThiT Glu84Asp mutant expressed in Lactococcus lactis NZ9000 by isothermal calorimetric titration method
[8] = molecular target: Thiamine transporter ThiT (Lactococcus lactis subsp. cremoris (strain MG1363), UniProt A2RI47, E84A); experiment: Binding affinity to Lactococcus lactis MG1363 N-terminal His8-tagged ThiT Glu84Ala mutant expressed in Lactococcus lactis NZ9000 by isothermal calorimetric titration method
Thiamine transporter ThiT (Lactococcus lactis subsp. cremoris (strain MG1363), UniProt A2RI47, E84A), sequence (A2RI47 whole entry E84A): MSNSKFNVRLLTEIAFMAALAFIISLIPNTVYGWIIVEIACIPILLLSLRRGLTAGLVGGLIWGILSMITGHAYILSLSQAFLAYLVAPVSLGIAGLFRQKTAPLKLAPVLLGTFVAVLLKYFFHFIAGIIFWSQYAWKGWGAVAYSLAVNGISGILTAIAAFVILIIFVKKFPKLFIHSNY

Thiamine transporter ThiT (Lactococcus lactis subsp. cremoris (strain MG1363), UniProt A2RI47, E84D), sequence (A2RI47 whole entry E84D): as the sequence (A2RI47 whole entry E84A) above, with A84D counted along it
Thiamine transporter ThiT (Lactococcus lactis subsp. cremoris (strain MG1363), UniProt A2RI47, W34A), sequence (A2RI47 whole entry W34A): as the sequence (A2RI47 whole entry E84A) above, with W34A, A84E counted along it
Thiamine transporter ThiT (Lactococcus lactis subsp. cremoris (strain MG1363), UniProt A2RI47, H125N), sequence (A2RI47 whole entry H125N): as the sequence (A2RI47 whole entry E84A) above, with A84E, H125N counted along it
Thiamine transporter ThiT (Lactococcus lactis subsp. cremoris (strain MG1363), UniProt A2RI47, E84Q), sequence (A2RI47 whole entry E84Q): as the sequence (A2RI47 whole entry E84A) above, with A84Q counted along it
Thiamine transporter ThiT (Lactococcus lactis subsp. cremoris (strain MG1363), UniProt A2RI47, H125A), sequence (A2RI47 whole entry H125A): as the sequence (A2RI47 whole entry E84A) above, with A84E, H125A counted along it

Row | SMILES | Kd [1] [µM] | also measured
1 | Cc1ncc(C[n+]2cccc(CCO)c2C)c(N)n1 | 0.00018 | –
2 | Cc1ncc(Cn2cc(CCO)nn2)c(N)n1 | – | Kd [2]: 28.6 µM
3 | Cc1ncc(Cc2cccc(CCO)c2)c(N)n1 | 0.266 | –
4 | Cc1ncc(Cc2csc(CCS[C@@H]3O[C@H](CO)[C@@H](O)[C@H](O)[C@H]3O)c2C)c(N)n1 | 0.183 | –
5 | Cc1ncc(Cc2csc(COCc3ccccc3)c2C)c(N)n1 | 0.0403 | –
6 | Cc1ncc(Cc2cc(CO)cc(C(F)(F)F)c2)c(N)n1 | – | Kd [2]: 2.3 µM
7 | Cc1ncc(Cc2csc(CNCC(c3ccccc3)c3ccccc3)c2C)c(N)n1 | 0.168 | –
8 | Cc1ncc(Cc2csc(COP(=O)(O)OP(=O)(O)O)c2C)c(N)n1 | 0.209 | –
9 | Cc1ncc(Cc2csc(CNCc3ccccn3)c2C)c(N)n1 | 0.0967 | –
10 | Cc1ncc(Cc2csc(CCOC(=O)c3c[nH]c4ccccc34)c2C)c(N)n1 | 0.0201 | –
11 | Cc1ncc(Cc2cccc(CO)c2)c(N)n1 | 0.528 | –
12 | Cc1ncc(Cc2csc(CNCC34CC5CC(CC(C5)C3)C4)c2C)c(N)n1 | – | Kd [2]: 49.8 µM
13 | Cc1cc(CO)cc(Cc2cnc(C)nc2N)c1 | – | Kd [2]: 1.99 µM
14 | Cc1ncc(C[n+]2csc(CCO[P@](=O)(O)OP(=O)(O)O)c2C)c(N)n1 [COCARBOXYLASE] | 0.0016 | –
15 | Cc1ncc(C[n+]2csc(CCO)c2C)c(N)n1 [THIAMINE ION] | 0.000122 | Kd [3]: 0.00035 µM; Kd [4]: 13.6 µM; Kd [5]: 0.0149 µM; Kd [6]: 0.0136 µM; Kd [7]: 0.00221 µM; Kd [8]: 3.65 µM

Reference: ChEMBL document CHEMBL4261509, “Insight into the complete substrate-binding pocket of ThiT by chemical and genetic mutations” (Medchemcomm, 2017)
